In patent US10005792B2, “Aminoindane-, aminotetrahydronaphthalene- and aminobenzocyclobutane-derived PRMT5-inhibitors” (CTXT PTY LTD, priority 2014, dated 2018):
Structures can show the parent of a compound that is named as a salt.

Target: Full-length PRMT5 enzyme co-expressed with MEP50 (Homo sapiens (Human), UniProt O14744)
Assay: Revised PRMT5 Biochemical Assay
Conditions: 1 μM histone H4 derived peptide substrate, 1 μM S-Adenosyl methionine, 4 hours at 37 degree Celsius, Transcreener EPIGEN fluorescence polarisation
Protocol: Compounds of the invention may be tested for in vitro activity in the following assay: A histone H4 derived peptide is used as substrate (amino acid sequence: […]NH2). Full-length PRMT5 enzyme (NCBI Reference sequence NP-006100.2) was co-expressed with Hiss-MEP50 in insect cells and purified via Nickel immobilized metal affinity and gel filtration chromatography (“the enzyme”).
The 6 μL reactions are run in Greiner brand black 384-well low volume assay plates. All reactions contained assay buffer (phosphate buffered saline, 0.01% (v/v) Tween-20, 0.01% (w/v) albumin from chicken egg white, 1 mM Dithiothreitol, 1 μM peptide substrate, 1 μM S-Adenosyl methionine, and 15 ng/reaction enzyme, with the enzyme being omitted from negative control reactions. Compounds were added in a volume of 100 nL from dilution series prepared in DMSO, positive and negative control reactions receiving the same volume DMSO without compound. The plates were sealed with adhesive seals and incubated for 4 hours at 37 degree Celsius. Reaction progress was measured using the Transcreener™ EPIGEN methyltransferase assay (BellBrook Labs, Madison, Wis.) as recommended by the manufacturer. To each reaction 2 μL detection mix were added, containing coupling enzymes, fluorescence polarisation tracer, and AMP antibody. Plates were incubated for 90 minutes before being read on a PerkinElmer EnVision™ plate reader in fluorescence polarisation mode. IC50 values were obtained from the raw readings by calculating percent inhibition (% I) for each reaction relative to controls on the same plate (% I=(I−CN)/(CP−CN) where CN/CP are the averages of the negative/positive reactions, respectively), then fitting the % I data vs. compound concentration [I] to % I=([…]) where A is the lower asymptote, B is the upper asymptote, C is the IC50 value, and D is the slope.

Chain of Full-length PRMT5 enzyme co-expressed with MEP50 (O14744 whole entry): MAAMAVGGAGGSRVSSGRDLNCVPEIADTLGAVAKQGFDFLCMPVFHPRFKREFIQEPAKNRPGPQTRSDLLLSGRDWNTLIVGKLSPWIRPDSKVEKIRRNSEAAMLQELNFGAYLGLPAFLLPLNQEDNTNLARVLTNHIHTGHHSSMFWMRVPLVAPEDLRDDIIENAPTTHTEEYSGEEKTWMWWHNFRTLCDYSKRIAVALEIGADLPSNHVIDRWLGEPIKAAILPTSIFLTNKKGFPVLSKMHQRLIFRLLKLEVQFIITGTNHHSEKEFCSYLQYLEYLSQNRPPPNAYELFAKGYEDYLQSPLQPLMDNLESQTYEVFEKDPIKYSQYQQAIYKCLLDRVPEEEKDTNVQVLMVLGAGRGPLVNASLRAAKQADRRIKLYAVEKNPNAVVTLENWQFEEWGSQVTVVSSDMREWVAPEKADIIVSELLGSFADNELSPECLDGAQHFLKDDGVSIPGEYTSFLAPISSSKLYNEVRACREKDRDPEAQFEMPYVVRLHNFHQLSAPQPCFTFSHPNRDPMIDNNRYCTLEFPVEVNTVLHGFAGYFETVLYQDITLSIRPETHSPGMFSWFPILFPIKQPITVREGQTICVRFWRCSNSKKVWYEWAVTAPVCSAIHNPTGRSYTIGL
Chain of Full-length PRMT5 enzyme co-expressed with MEP50 (Q9BQA1 whole entry partner): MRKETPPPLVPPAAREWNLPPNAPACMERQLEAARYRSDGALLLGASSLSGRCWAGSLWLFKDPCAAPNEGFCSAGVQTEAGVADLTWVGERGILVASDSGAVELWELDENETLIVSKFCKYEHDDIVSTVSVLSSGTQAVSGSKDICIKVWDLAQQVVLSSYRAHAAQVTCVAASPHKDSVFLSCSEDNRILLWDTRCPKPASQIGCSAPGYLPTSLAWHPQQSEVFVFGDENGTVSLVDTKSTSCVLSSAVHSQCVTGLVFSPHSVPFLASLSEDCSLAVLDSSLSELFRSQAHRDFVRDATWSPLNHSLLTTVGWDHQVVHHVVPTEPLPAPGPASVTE

Question: `O=C(NC[C@@H](O)CNC1Cc2ccccc2C1)c1ccc(C(=O)N2CCC(CO)CC2)cc1` [Compound 61, (S)-N-(3-((2,3-dihydro-1H-inden-2-yl)amino)-2-hydroxypropyl)-4-(4-(hydroxymethyl)piperidine-1-carbonyl)benzamide] was tested. Which IC50 did it give?
Answer: The IC50 was 0.18 µM.

Question: With `O=C(NC[C@@H](O)CNC1Cc2ccccc2C1)c1cccc(C(=O)N2CCOCC2)c1` [Compound 62, (S)-N-(3-((2,3-dihydro-1H-inden-2-yl)amino)-2-hydroxypropyl)-3-(morpholine-4-carbonyl)benzamide] as the compound, how does the IC50 read?
Answer: Its IC50 is 6.92 µM.

Question: For `O=C(NCC(O)CNC1Cc2ccccc2C1)c1ccc(N2CCCCC2=O)cc1` (stereo not drawn) [Compound 63, N-(3-((2,3-Dihydro-1H-inden-2-yl)amino)-2-hydroxypropyl)-4-(2-oxopiperidin-1-yl)benzamide], which IC50 is on record?
Answer: The IC50 was 7.29 µM.

Question: `CC(=O)N1CCC(Nc2ccc(C(=O)NCC(O)CNC3Cc4ccccc4C3)cc2)CC1` (stereo not drawn) [Compound 64, 4-((1-Acetylpiperidin-4-yl)amino)-N-(3-((2,3-dihydro-1H-inden-2-yl)amino)-2-hydroxypropyl) benzamide] was tested. Which IC50 did it give?
Answer: Its IC50 is 1.1 µM.

Question: For `O=C(NC[C@@H](O)CNC1Cc2ccccc2C1)c1ccc(C(=O)N2CCS(=O)(=O)CC2)cc1` [Compound 65, (S)—N-(3-((2,3-dihydro-1H-inden-2-yl)amino)-2-hydroxypropyl)-4-(1,1-dioxidothiomorpholine-4-carbonyl)benzamide], which IC50 is on record?
Answer: Its IC50 is 1.3 µM.

Question: For `O=C(NC[C@@H](O)CNC1Cc2ccccc2C1)c1ccc(C(=O)N2CC3(COC3)C2)cc1` [Compound 66, (S)-N-(3-((2,3-dihydro-1H-inden-2-yl)amino)-2-hydroxypropyl)-4-(2-oxa-6-azaspiro[3.3]heptane-6-carbonyl)benzamide], which IC50 is on record?
Answer: Its IC50 is 1.56 µM.

Question: `O=C(NC[C@@H](O)CNC1Cc2ccccc2C1)c1ccc(C(=O)N2CCCCC2)nc1` [Compound 68, (S)-N-(3-((2,3-dihydro-1H-inden-2-yl)amino)-2-hydroxypropyl)-6-(piperidine-1-carbonyl)nicotinamide] was tested. Which IC50 did it give?
Answer: Its IC50 is 6.17 µM.

Question: For `O=C(NC[C@H](O)CNC1Cc2ccccc2C1)c1ccc(C(=O)N2CCCCC2)nc1` [Compound 69, (R)-N-(3-((2,3-dihydro-1H-inden-2-yl)amino)-2-hydroxypropyl)-6-(piperidine-1-carbonyl)nicotinamide], which IC50 is on record?
Answer: Its IC50 is 10 µM.

Question: Which IC50 does the source give for `CC[C@@H]1COCCN1C(=O)c1ccc(C(=O)NC[C@@H](O)CNC2Cc3ccccc3C2)cc1` [Compound 71, N-((S)-3-((2,3-dihydro-1H-inden-2-yl)amino)-2-hydroxypropyl)-4-((R)-3-ethylmorpholine-4-carbonyl)benzamide] here?
Answer: Its IC50 is 0.237 µM.

Question: For `CC1(C)CN(C(=O)c2ccc(C(=O)NC[C@@H](O)CNC3Cc4ccccc4C3)cc2)CCO1` [Compound 72, (S)-N-(3-((2,3-dihydro-1H-inden-2-yl)amino)-2-hydroxypropyl)-4-(2,2-dimethylmorpholine-4-carbonyl)benzamide], which IC50 is on record?
Answer: Its IC50 is 0.341 µM.

Question: Which IC50 does the source give for `O=C(NC[C@@H](O)CNC1Cc2ccccc2C1)c1ccc(CC(=O)N2CCCCC2)nc1` [Compound 78, (S)-N-(3-((2,3-dihydro-1H-inden-2-yl)amino)-2-hydroxypropyl)-6-(2-oxo-2-(piperidin-1-yl)ethyl)nicotinamide] here?
Answer: The IC50 was 5.58 µM.

Question: Which IC50 does the source give for `COCC1CCCCN1C(=O)c1ccc(C(=O)NC[C@@H](O)CNC2Cc3ccccc3C2)cc1` (stereo partly drawn) [Compound 80, N-((S)-3-((2,3-dihydro-1H-inden-2-yl)amino)-2-hydroxypropyl)-4-(2-(methoxymethyl)piperidine-1-carbonyl)benzamide] here?
Answer: Its IC50 is 0.253 µM.

Question: `COC1CCN(C(=O)c2ccc(C(=O)NC[C@@H](O)CNC3Cc4ccccc4C3)cc2)C1` (stereo partly drawn) [Compound 81, N-((S)-3-((2,3-dihydro-1H-inden-2-yl)amino)-2-hydroxypropyl)-4-(3-methoxypyrrolidine-1-carbonyl)benzamide] was tested. Which IC50 did it give?
Answer: The IC50 was 1.37 µM.

Question: Which IC50 does the source give for `COC1CCN(C(=O)c2ccc(C(=O)NC[C@@H](O)CNC3Cc4ccccc4C3)cc2)CC1` [Compound 86, (S)-N-(3-((2,3-dihydro-1H-inden-2-yl)amino)-2-hydroxypropyl)-4-(4-methoxypiperidine-1-carbonyl)benzamide] here?
Answer: Its IC50 is 0.682 µM.

Question: With `COc1cc(CC(=O)N2CCOCC2)ccc1C(=O)NC[C@@H](O)CNC1Cc2ccccc2C1` [Compound 87, (S)-N-(3-((2,3-dihydro-1H-inden-2-yl)amino)-2-hydroxypropyl)-2-methoxy-4-(2-morpholino-2-oxoethyl)benzamide] as the compound, how does the IC50 read?
Answer: The IC50 was 2.76 µM.

Question: For `O=C(NC[C@@H](O)CNC1Cc2ccccc2C1)c1ccc(C(=O)N2CCC3(CCO3)CC2)cc1` [Compound 88, (S)-N-(3-((2,3-dihydro-1H-inden-2-yl)amino)-2-hydroxypropyl)-4-(1-oxa-7-azaspiro[3.5]nonane-7-carbonyl)benzamide], which IC50 is on record?
Answer: The IC50 was 0.229 µM.

Question: Which IC50 does the source give for `COC(=O)Cc1ccc(C(=O)NC[C@@H](O)CNC2Cc3ccccc3C2)cc1` [Compound 89, (S)-methyl 2-(4-((3-((2,3-dihydro-1H-inden-2-yl)amino)-2-hydroxypropyl)carbamoyl)phenyl)acetate] here?
Answer: Its IC50 is 0.853 µM.

Question: `O=C(NC[C@@H](O)CNC1Cc2ccccc2C1)c1ccc(CC(=O)N2CCOCC2)cc1` [Compound 90, (S)-N-(3-((2,3-dihydro-1H-inden-2-yl)amino)-2-hydroxypropyl)-4-(2-morpholino-2-oxoethyl)benzamide] was tested. Which IC50 did it give?
Answer: Its IC50 is 3.15 µM.

Question: With `O=C(NC[C@H](O)CNC1Cc2ccccc2C1)c1ccc(CC(=O)N2CCCC2)cc1` [Compound 91, (R)-N-(3-((2,3-dihydro-1H-inden-2-yl)amino)-2-hydroxypropyl)-4-(2-oxo-2-(pyrrolidin-1-yl)ethyl)benzamide] as the compound, how does the IC50 read?
Answer: Its IC50 is 1.23 µM.

Question: Which IC50 does the source give for `O=C(NC[C@@H](O)CNC1Cc2ccccc2C1)c1ccc(CC(=O)N2CCCC2)cc1` [Compound 100, (S)-N-(3-((2,3-dihydro-1H-inden-2-yl)amino)-2-hydroxypropyl)-4-(2-oxo-2-(pyrrolidin-1-yl)ethyl)benzamide] here?
Answer: The IC50 was 1.1 µM.

Question: How did the IC50 turn out when `CC1(C)COCCN1C(=O)c1ccc(C(=O)NC[C@@H](O)CNC2Cc3ccccc3C2)cc1` [Compound 102, (S)-N-(3-((2,3-dihydro-1H-inden-2-yl)amino)-2-hydroxypropyl)-4-(3,3-dimethylmorpholine-4-carbonyl)benzamide] was run?
Answer: The IC50 was 0.482 µM.

Question: How did the IC50 turn out when `O=C(NC[C@@H](O)CNC1Cc2ccccc2C1)c1ccc(C(=O)N2CCOCC23CCC3)cc1` [Compound 104, (S)-N-(3-((2,3-dihydro-1H-inden-2-yl)amino)-2-hydroxypropyl)-4-(8-oxa-5-azaspiro[3.5]nonane-5-carbonyl)benzamide] was run?
Answer: Its IC50 is 0.514 µM.

Question: How did the IC50 turn out when `NC(CNC(=O)c1ccc(C(=O)N2C3CCC2COC3)cc1)CNC1Cc2ccccc2C1` (stereo not drawn) [Compound 106, N-(2-Amino-3-((2,3-dihydro-1H-inden-2-yl)amino)propyl)-4-(3-oxa-8-azabicyclo[3.2.1]octane-8-carbonyl)benzamide] was run?
Answer: Its IC50 is 24.3 µM.

Question: With `NC(=O)C(CNC(=O)c1ccc(C(=O)N2CCOCC2)cc1)CNC1Cc2ccccc2C1` (stereo not drawn) [Compound 107, N-(3-Amino-2-(((2,3-dihydro-1H-inden-2-yl)amino)methyl)-3-oxopropyl)-4-(morpholine-4-carbonyl)benzamide] as the compound, how does the IC50 read?
Answer: Its IC50 is 52.2 µM.

Question: How did the IC50 turn out when `O=C(NCC(CO)CNC1Cc2ccccc2C1)c1ccc(C(=O)N2CCOCC2)cc1` (stereo not drawn) [Compound 108, N-(3-((2,3-Dihydro-1H-inden-2-yl)amino)-2-(hydroxymethyl)propyl)-4-(morpholine-4-carbonyl)benzamide] was run?
Answer: The IC50 was 21.2 µM.

Question: `CS(=O)(=O)N1CC(Nc2cc(C(=O)NC[C@@H](O)CNC3Cc4ccccc4C3)ccn2)C1` [Compound 109, (S)—N-(3-((2,3-Dihydro-1H-inden-2-yl)amino)-2-hydroxypropyl)-2-((1-(methylsulfonyl)azetidin-3-yl)amino)isonicotinamide bis 2,2,2-trifluoroacetic acid salt] was tested. Which IC50 did it give?
Answer: The IC50 was 11.1 µM.

Question: How did the IC50 turn out when `CC(=O)N1CC(Nc2cc(C(=O)NC[C@@H](O)CNC3Cc4ccccc4C3)ccn2)C1` [Compound 110, (S)-2-((1-Acetylazetidin-3-yl)amino)-N-(3-((2,3-dihydro-1H-inden-2-yl)amino)-2-hydroxypropyl)isonicotinamide bis 2,2,2-trifluoroacetic acid salt] was run?
Answer: The IC50 was 0.166 µM.

Question: `CN(C[C@H](O)CNC(=O)c1ccc(C(=O)N2CCOCC2)cc1)C1Cc2ccccc2C1` [Compound 112, (R)—N-(3-((2,3-Dihydro-1H-inden-2-yl)(methyl)amino)-2-hydroxypropyl)-4-(morpholine-4-carbonyl)benzamide] was tested. Which IC50 did it give?
Answer: Its IC50 is 9.41 µM.

Question: `O=C(NC[C@@H](O)CNC1Cc2ccccc2C1)c1cccc2ncsc12` [Compound 113, (S)-N-(3-((2,3-dihydro-1H-inden-2-yl)amino)-2-hydroxypropyl) benzo[d]thiazole-7-carboxamide] was tested. Which IC50 did it give?
Answer: The IC50 was 4.15 µM.

Question: How did the IC50 turn out when `CCOc1nc(C(=O)N2C3CCC2COC3)ccc1C(=O)NC[C@@H](O)CNC1Cc2ccccc2C1` [Compound 115, 6-(3-oxa-8-azabicyclo[3.2.1]octane-8-carbonyl)-N-((S)-3-((2,3-dihydro-1H-inden-2-yl)amino)-2-hydroxypropyl)-2-ethoxynicotinamide] was run?
Answer: Its IC50 is 0.305 µM.
